Results from patent US7361643B2, “Methods for inhibiting angiogenesis” (University of Puerto Rico, priority 2000, dated 2008).
“Also recorded” adds a separate entry of the source.

Experiments:
[1] = tested on: bovine adrenal medullary microvascular endothelial cells; assay: DNA laddering by agarose gel electrophoresis; assay type: cell-based; conditions: DNA from cells treated with 1 μg/ml tunicamycin for 32 hours
[2] = tested on: bovine adrenal medullary microvascular endothelial cells; assay: Morphology by light microscopy and scanning electron microscopy; assay type: cell-based; conditions: 1 μg/ml tunicamycin, 2% (v/v) FBS
Procedure: The synchronized population of the above described bovine capillary endothelial cells was exposed to tunicamycin (lot number 10922120-07 from Boehringer-Mannheim, Indianapolis, Ind.) with no history of protein synthesis inhibition, for different lengths of time at various concentrations, as shown, e.g., in FIG. 3, in a complete EMEM containing 2% (v/v) fetal bovine serum (FBS) (heat-inactivated) at 37° C. to evaluate the morphological changes. The cells were monitored by phase-contrast light microscopy as well as by scanning electron microscopy.
For scanning electron microscopy, 5×10^3 cells were cultured on 13 mm round Thermanox coverslips in 12 well clusters (COSTAR) in complete EMEM. Cells were synchronized as mentioned above and cultured in EMEM containing either 2% (v/v) FBS (control), 10% (v/v) FBS or 2% (v/v) FBS plus 1 μg/ml tunicamycin. The coverslips were removed at specified times and the cells were fixed in 2.5% (v/v) glutaraldehyde for 30 minutes. The cells were washed three times (10 minutes each) with Millonigs (1961) isotonic phosphate buffer, pH 7.3, and treated with 1% (w/v) osmium tetroxide for 15 minutes. See MILLONIG, “Advantages of a Phosphate Buffer for Osmium Tetroxide Solutions in Fixation”, J. Appl. Physics, 32:1637 (1961), the disclosure of which is herein incorporated by reference in its entirety. […]

[3] = tested on: tunicamycin sensitive clone JMEC; assay: Apoptosis and recovery in the tunicamycin sensitive cell clone; assay type: cell-based, bovine
Source text: To understand the precise molecular mechanism of tunicamycin induced apoptosis of capillary endothelial cells, a cell clone was isolated from the parental culture that was maintained in a serum-free media for six weeks following synchronization. The morphology of these cells and their growth profile appear quite different. For example, the shapes are more spindle-like, resembling Kaposi's Sarcoma lesions endothelial cells, as disclosed in FIORELLI et al., “Cytokines from Activated T Cells Induce Normal Endothelial Cells to Acquire the Phenotypic and Functional Features of AIDS-Kaposi's Sarcoma Spindle Cells”, J. Clin. Invest., 95:1723-1734 (1995), the disclosure of which is herein incorporated by reference in its entirety. The cells undergo two-population doubling in 2% (v/v) fetal bovine serum, differentiate in 5 days, and complete one cell cycle in approximately 56 hours (FIG. 4).
There was no recovery after exposing the cells to 1 μg/ml-10 μg/ml tunicamycin for 72 hours or more (not all data shown).

[4] = tested on: protein N-glycosylation; conditions: control cells and isoproterenol-treated cells, BANERJEE et al. (1993); cited from earlier work

Substance: tunicamycin
- DNA laddering [1]: appearance of laddering
- morphology by light microscopy [2]: cell shrinkage, loss of membrane contact with neighboring cells, apparent compaction of nuclei showing condensed pyknotic appearance and membrane fragmentation; also recorded: cell shrinkage, loss of membrane contact with neighboring cells, apparent compaction of nuclei showing condensed pyknotic appearance, and membrane fragmentation
- surface morphology by scanning electron microscopy ([2]; 96 hours): considerable surface blebbing; also recorded: enormous surface blebbing
- concentration for apoptosis less than needed for parental cells ([3]; 10 ng/ml in clone versus parental cells): 100 fold
- cells recovered in 5 days ([3]; 10 ng/ml tunicamycin for 24 hours): approximately 60%
- apoptosis of the sensitive clone ([3]; 10 ng/ml tunicamycin, 32 hours): undergoes apoptosis
- cells recovered in 5 days ([3]; 1 μg/ml tunicamycin for 48 hours): recovered similarly
- recovery of cells ([3]; 1 μg/ml-10 μg/ml tunicamycin for 72 hours or more): no recovery
- cells recovered ([3]; 10 μg/ml tunicamycin for 48 hours): less than 20%
- glycosylation [4]: reduced glycosylation
